Laboratory results published in patent US5852011A, “Benzimidazole derivatives” (Mitsui Chemicals, Inc., priority 1994, dated 1998).
≈ marks a conversion by molar mass, not a printed value. Counter-ions that a name gives are not always drawn.

Assays:
[1] = test system: A(adenine)-T(thymine) DNA copolymer; test: Change in Tm (melting temperature) of DNA copolymer on addition of compound (Test 1); format: binding; settings: for ΔTm: difference between Tm with and without compound, citrated buffer
Experimental: To investigate bonding of these compounds with DNA, changes in Tm (melting temperature) were measured. With respect of each of these compounds, the measurement was conducted by determining the difference between Tm measured when a citrated buffer solution of an A(adenine)-T(thymine) DNA copolymer was added with the compound and that measured when the compound was not added. For the measurement, a spectrophotometer ("HITACHI U-3200 MODEL") was used and for temperature control, "HITACHI SPR-10 MODEL" was used.

[2] = test system: mouse B16 melanoma cells; test: In vitro inhibition of proliferation of tumored cells, mouse B16 melanoma (Test 2); format: cell-based; settings: 3 days in 5% CO2 at 37° C., 96-well plate; for IC50: Mus musculus, B16, 72 h, read-out: 50% Inhibition
Experimental: A description will next be made of antitumor activities of these compounds. Their antitumor activities were determined by measuring their in vitro inhibition of proliferation of tumored cells. Namely, mouse B16 melanoma cells were spread over a 96-well culture plate. One day later, each drug was applied. The melanoma cells were then incubated for 3 days in 5% CO2 at 37° C. Following the method reported in Cancer Res., 48, 589-601(1988), the concentration of the drug required to induce 50% inhibition on the proliferation was determined. As a comparative example, the results obtained from the application of distamycin are also shown.

[3] = test system: Colon 26 mouse colon cancer cells; test: In vivo antitumor activity, Colon 26 subcutaneously transplanted to female CDF1 mice (Test 4); settings: caudal vein, tumor weight on day 15
Experimental: Prepared was a 1×10^7 cells/ml suspension of Colon 26 mouse colon cancer cells in HBSS (Hanks' Balanced Salt Solution). A 0.1 ml portion of the cell suspension was subcutaneously transplanted to a lateroabdominal part of each female CDF1 mouse. After the body weight of the mouse was measured on the following day of the transplantation of the tumor, a solution of a compound (5% glucose solution containing 5% of "Tween 80") was administered into the caudal vein of the mouse. On day 15, a tumor was excised and its weight was measured.
The percentage of the average tumor weight of each experiment group as calculated by supposing that the average tumor weight of the control group not administered with any drug was 100% was calculated as a T/C value.
Corresponding to each compound number, its T/C value is shown. The number in parentheses indicates the concentration of the drug when the T/C value was indicated.

[4] = test system: P388 leukemia cells; test: In vivo antitumor activity, P388 leukemia intraperitoneally transplanted to female CDF1 mice (Test 3); parameters: species or system mouse; ILS: unit not given here; settings: intraperitoneal, one, five and nine days after transplantation
Experimental: In vivo antitumor activities of these compounds were also studied. P388 leukemia cells (10^6 cells/mouse) were intraperitoneally transplanted to female CDF1 mice. One, five and nine days later, each compound was intraperitoneally administered (at 1, 3 or 10 mg/kg) to the mice. As a blank test, 5% glucose was intraperitoneally administered at 10 ml/kg to mice. Based on the group of the mice in the blank test as a control group, the effects of the individual drugs are shown in terms of ILS. The term "ILS" is represented by the following formula: [formula]
When test animals survived 8 weeks after the administration, the number of those survived was recorded without calculation of ILS.

Compound	50% Inhibition [2]	ΔTm [1]	IC50 [2]	further results
Cn1cc(C=O)cc1-c1nc2cc(C(=O)NCCC(=N)N)ccc2[nH]1				binding to DNA indicated by Tm (in words) ([1]; melting temperature of double-stranded DNA): increased Tm value
Cn1cc(NC(=O)c2ccc(N(CCCl)CCCl)cc2)cc1-c1nc2cc(C(=O)NCCC(=N)N)ccc2[nH]1 [Compound 1, 1H-2-[4-[4-[N,N-bis(2-chloroethyl)amino]benzoylamino]-1-methylpyrrol-2-yl]benzimidazole-5-[N-(2-amidinoethyl)]carboxamide hydrochloride]	0.23 µg/mL			T/C ([3]; 2 mg/Kg): 29%; ILS ([4]; 1 mg/kg): 38
Cn1cc(NC(=O)CCCc2ccc(N(CCCl)CCCl)cc2)cc1-c1nc2cc(C(=O)NCCC(=N)N)ccc2[nH]1 [Compound 4, 1H-2-[4-[4-[4-[N,N-bis(2-chloroethyl)amino]phenyl]butylylamino]-1-methylpyrrol-2-yl]benzimidazole-5-[N-(2-amidinoethyl)]carboxamide hydrochloride]	0.04 µg/mL	17 °C		
Cn1cc(NC=O)cc1-c1nc2cc(C(=O)NCCC(=N)N)ccc2[nH]1 [Compound 318, 1H-2-(4-Formylamino-1-methylpyrrol-2-yl)benzimidazole-5-[N-(2-amidinoethyl)]carboxamide hydrochloride]		7 °C	19.8 µg/mL	
Cn1cc(NC(=O)CNC(=N)N)cc1-c1nc2cc(C(=O)Nc3ccc(N(CCCl)CCCl)cc3)ccc2[nH]1 [Compound 1001, 1H-2-[1-Methyl-4-(2-guanidinoacetylamino)pyrrol-2-yl]benzimidazole-5-[N-[4-[N,N-bis(2-chloroethyl)amino]phenyl]]carboxamide hydrochloride]	0.53 µg/mL			T/C ([3]; 6 mg/Kg): 7%; ILS ([4]; 10 mg/kg): 115
Cn1cc(NC(=O)c2cc(NC(=O)c3cc(NC=O)cn3C)cn2C)cc1C(=O)NCCC(=N)N [Distamycin, distamycin, reference compound]		10 °C	36 µg/mL (≈ 74.8 µM)	
